Assays:
AMPK, Opa1 = assay: Western blot of AMPK activation and Opa1 isoforms; type: cell-based; details: after AP39 treatment
Text: AP39 enhanced AMPK activation and produced shorter isoform of Opa1, i.e. no longer isoform of Opa1. Note AMPK substrate ACC phosphorylation
Mitochondrial energy efficiency is regulated through accumulation of the shorter form of Opa1 after AP39 treatment. […] Thus, AP39 treatment led to mitochondrial fission, better quality control through increased mitophagy (increased AMPK activation) and energetic efficiency (short form of Opa1), which were all needed to eliminate Dox damaged mitochondria and to halt the functional decline. Apart from its role in mitophagy and quality control, AMPK activation also induces transcription of nuclear encoded mitochondrial resident proteins.

[1] = Oxygen Consumption Rate (OCR); type: cell-based; details: AP39, not significantly different in the presence of Dox
Text: AP39 enhanced AMPK activation (A and B) and produced shorter isoform of Opa1, i.e. no longer isoform of Opa1. Oxygen consumption rates (OCR) with different treatments. […] Note AMPK substrate ACC phosphorylation.
It is possible that AP39 relies mostly on increased energy efficiency rather than on improving OCR after Dox treatment.

[2] = test system: Myc/Max-regulated transcripts; assay: RNAseq analysis in H9C2 cell line; type: cell-based, Rat
Description: The coverage among groups are indicated.
Next, to interrogate mechanisms of AP39 protection against DIC, RNAseq analysis was performed. There was sufficient coverage of the whole transcriptome among the groups (FIG. 8A).

[3] = 13C-glucose isotope tracing and GC-MS metabolite quantification; type: cell-based
Description: Stable isotope (13C glucose) tracer studies. Heatmap.
(§1) To this end, 13C-glucose flux/isotope tracing and quantified metabolites through GC-MS were examined at 16 hrs and 24 hrs after the treatments. Glucose, glutamine and lactate were also measured in supernatants at these time points. […] With the exception of glycolytic metabolites, the remaining metabolic pathways (poor labeling) were non-operational after Dox treatment (FIG. 10A).
When considered AP39-mediated activation of AMPK, H2S is selectively halting energy consuming anabolic pathways, such as protein synthesis (also, lipid, AMPK inhibits […], a rate limiting lipid synthesizing enzyme, FIGS. 7A and B), as observed before^41, thus leading to accumulation of amino acids and is enhancing TCA cycle through AMPK activation. The net result is better energy management with AP39/H2S treatment.

[4] = Glucose, glutamine and lactate in cell culture supernatants; type: cell-based
Description: Quantification of glutamine, glucose and lactate in the cell culture supernatants at 16 and 24 hrs. n=3; p<0.05 or 0.01 (2 symbols); * vs Cont; # vs Dox at 16 hrs; and $ vs Cont; ^ vs Dox at 24 hrs.
as §1
However, AP39 treatments caused dominant effects in glucose utilization (1.5 fold increase vs Dox at 24 hrs) and lactate production. Such high lactate production is one of the main reasons behind the modest in vitro protective ability of AP39 against Dox (FIG. 5), which is in contrast to the in vivo scenario (FIGS. 3 and 4). Thus, metabolomics and transcriptomic approaches led to better understanding of the protective function of AP39.

hiPSC-CMs = assay: DIC in hiPSC-CMs (Annexin V, MitoSox Red); type: cell-based, human
[5] = test system: 786-O cells renal cancer cells; assay: Cell viability of 786-O renal cancer cells; type: cell-based
Description: (§2) Methods for cell viability: Cells were plated in 96 wells/6 wells cell culture plates. After 24 hrs of plating, the treatments (added in the growth medium) were conducted. The following assays were performed after 24 hrs of the treatments (day 2). (FIGS. 15A, 17-20, 24-27)
(§3) MTT assay methods. For the MTT assay, […] of 5 mg/ml MTT-tetrazolium salts in PBS was added to each well containing the growth medium. After 3 hours of incubation, the medium was removed and the formazan crystals were dissolved by adding DMSO. The absorption of the formazan solution was measured using a spectrophotometer at a wavelength of 570 nm. FIGS. 15B, 21-22.
786-O cells renal cancer cells were exposed to control, AP39 (AP) at 40 or 60 μM, Doxorubicin at 2.5 or 20 μM, thiolactate at 10 mM, AP39 and Doxorubicin, AP39 and thiolactate, or Doxorubicin and Thiolactate. […] FIGS. 18 and 21.

A549 lung cancer cells = assay: Cell viability of A549 lung cancer cells; type: cell-based
Description: as §2, §3
A549 lung cancer cells were exposed to control, AP39 (AP) at 40 or 60 μM, Doxorubicin at 2.5 or 20 μM, thiolactate at 10 mM, AP39 and Doxorubicin, AP39 and thiolactate, or Doxorubicin and Thiolactate. […] FIGS. 19 and 21.

H1299 lung cancer cells = assay: Cell viability of H1299 lung cancer cells; type: cell-based
Description: as §2, §3
H1299 lung cancer cells were exposed to control, AP39 (AP) at 40 or 60 μM, Doxorubicin at 2.5 or 20 μM, thiolactate at 10 mM, AP39 and Doxorubicin, AP39 and thiolactate, or Doxorubicin and Thiolactate. […] FIGS. 20-22.

MCF7 breast cancer cells = assay: Cell viability (MTT, crystal violet) of MCF7 breast cancer cells; type: cell-based
Description: as §2, §3
Crystal Violet (CV) assay. For the CV Staining assay, cells were stained with 0.5% crystal violet in 30% ethanol for 10 minutes at room temperature after removal of the medium. The cells were lysed in a 1% SDS (sodium dodecyl sulfate) solution. The absorbance of the solution was measured using a spectrophotometer at a wavelength of 595 nm. FIG. 27.
MCF7 breast cancer cells were exposed to control, AP39 (AP) at 40 or 60 μM, Doxorubicin at 2.5 or 20 μM, thiolactate at 10 mM, AP39 and Doxorubicin, AP39 and thiolactate, or Doxorubicin and Thiolactate. […] FIGS. 26-27.

[6] = AP39 40 or 60 μM, thiolactate 10 mM, 24 hrs
[7] = combination with Doxorubicin 2.5 μM

SMILES: O=C(CCCCCCCCC[P+](c1ccccc1)(c1ccccc1)c1ccccc1)Oc1ccc(-c2cc(=S)ss2)cc1.[Br-] [AP39]
- AMPK activation (AMPK, Opa1): potent AMPK activation
- Opa1 isoforms (Opa1-S, Opa1-L) (AMPK, Opa1): elevated amounts of the short form of Opa1 (Opa1-S) at the expense of long form (Opa1-L)
- Oxygen Consumption Rate (OCR) [1]: suppressed OCR
- abnormal transcriptional changes induced after Dox treatment, global level (RNAseq) ([2]; H9C2, AP39+Dox): significantly reversed abnormal transcriptional changes
- Myc transcription ([2]; H9C2, AP39 with Dox): restored Myc transcription
- Serine and glycine 13C labeling ([3]; 16 hrs and 24 hrs): suppressed
- accumulation of TCA metabolites during Dox treatment ([3]; AP39 with Dox): attenuated accumulation of TCA metabolites
- amino acid accumulations during Dox treatment ([3]; AP39 with Dox): not effective in preventing many amino acid accumulations
- 13C labeling of TCA cycle metabolites (citrate, malate, alpha-ketoglutarate, fumarate) ([3]; AP39 with or without Dox, 16 hrs and 24 hrs): highly labeled
- glutamine utilization (supernatants) ([4]; compared to control): suppressed glutamine utilization
- lactate production ([4]; supernatants): potent inducer of lactate production
- glucose utilization ([4]; supernatants, at 24 hrs): 1.5 fold increase vs Dox
- DIC in hiPSC-CMs (hiPSC-CMs; 4 μM AP39 with 7.5 μM Dox, 48 hrs): attenuated DIC
- tolerance of hiPSC-CMs to AP39 (hiPSC-CMs; 40 μM AP39, compared with H9C2 cells): greater susceptibility
- level of apoptosis (Annexin V) and mitochondrial ROS (MitoSox Red) (hiPSC-CMs; hiPSC-CMs, AP39 with Dox): attenuated with AP39 treatment
- cell killing, agent alone [5, 6]: able to kill renal cancer cells
- potency of low doses of Doxorubicin [5, 7]: able to increase the potency of low doses of Doxorubicin
- cell killing, agent alone (A549 lung cancer cells; [6]): able to kill lung cancer cells
- potency of low doses of Doxorubicin (A549 lung cancer cells; [7]): able to increase the potency of low doses of Doxorubicin
- cell killing, agent alone (H1299 lung cancer cells; [6]): able to kill lung cancer cells
- potency of low doses of Doxorubicin (H1299 lung cancer cells; [7]): able to increase the potency of low doses of Doxorubicin
- cell killing, agent alone (MCF7 breast cancer cells; [6]): able to kill breast cancer cells
- potency of low doses of Doxorubicin (MCF7 breast cancer cells; [7]): able to increase the potency of low doses of Doxorubicin

— patent publication US20210299150A1, “AP39 IMPACT ON MITOCHONDRIA, METABOLISM, GENE TRANSCRIPTION REGULATION, CARDIOTOXICITY PROTECTION AND CANCER TREATMENT” (priority 2020, published 2021)
